The text below walks through data of US12559509B1, “Citrate coordination complex of an orally-delivered beta-lactamase inhibitor and uses thereof” (priority 2023, dated 2026).

The conditions of data set [1]: monkeys, reported; cited from earlier work.
The nature of data set [2]: Excipient compatibility at 50° C., HPLC purity. The format is physicochemical. The conditions noted are these: for chemical stability in the presence of the excipients (in words): accelerated data. How it is done:
The compatibility of the drug substances with select functional excipients was confirmed by comparing the assay and purity of samples stored at 50° C. for 5 weeks to the drug substance control samples. The excipients tested included: microcrystalline cellulose (binder); magnesium stearate (lubricant); sodium starch glycolate (disintegrant); and colloidal silica (glidant). […] The samples were transferred to a 3-dram glass vial with a tight-fitting cap and placed in a 50° C. oven.

Data set [3] is described as follows: Dissolution testing (Apparatus II method) of capsule prototypes. The class given is physicochemical. The following applies: FDC capsule with ceftibuten dihydrate, by 10 minutes; 900 mL pH 6.8 50 mM sodium bicarbonate buffer, 75 RPM paddle. How it is done:
In some embodiments, the citrate coordination complex allows for the development of a dry powder, immediate release formulation as compared to other forms, such as the ethanolate, which could not be formulated directly as an immediate release formulation. […] Dissolution testing (Apparatus II method) was performed using 900 mL of pH 6.8 50 mM sodium bicarbonate buffer solution and a 75 RPM paddle speed.

A short description of data set [4]: Chemical stability of drug substance controls and binary blend, HPLC purity. The format is physicochemical.

SMILES strings stand for the structures. Structures can show the parent of a compound that is named as a salt.

By bioavailability is commonly meant dose-corrected exposure relative to a reference, in per cent. Take `Nc1nc(/C(=C/CC(=O)O)C(=O)N[C@@H]2C(=O)N3C(C(=O)O)=CCS[C@H]23)cs1` [Ceftibuten, reference compound]: the bioavailability in data set [1] is given as roughly 20%. The “chemical stability in the presence of the excipients (in words)” value in data set [2] is listed as “comparable to the stability for the drug substance controls”.

Take `CCC(=O)N[C@@H](Cc1cccc(C(=O)OCOC(=O)C(CC)CC)c1O)B1OC(=O)C(CC(=O)O)(CC(=O)O)O1` [Compound 1 citrate coordination complex, (R)-2,2′-(2-(2-(3-((((2-ethylbutanoyl)oxy)methoxy)carbonyl)-2-hydroxyphenyl)-1-propionamidoethyl)-5-oxo-1,3,2-dioxaborolane-4,4-diyl)diacetic acid]: the “release of the drug substance” value in data set [3] is listed as 100%. In data set [4] (controls and binary blend, 25° C. and 40° C., through 12 weeks), the “degradation (in words)” value is listed as “no degradation”. The “HPLC purity (% peak area)” value in data set [4] (drug substance control, 25° C. Storage, 0 weeks) came to 100.0%; in data set [4] (drug substance control, 25° C. Storage, 5 weeks), 100.0%; in data set [4] (drug substance control, 25° C. Storage, 8 weeks) it was 100.0%; in data set [4] (drug substance control, 25° C. Storage, 12 weeks), 100.0%; in data set [4] (drug substance control, 40° C. Storage, 0 weeks), 100.0%; in data set [4] (drug substance control, 40° C. Storage, 5 weeks), 100.0%. Also, the “HPLC purity (% peak area)” value in data set [4] (drug substance control, 40° C. Storage, 8 weeks) turned out to be 100.0%; in data set [4] (drug substance control, 40° C. Storage, 12 weeks) it was 100.0%; in data set [4] (in binary Blend, 25° C. Storage, 0 weeks), 100.0%; in data set [4] (in binary Blend, 25° C. Storage, 5 weeks), 100.0%; in data set [4] (in binary Blend, 25° C. Storage, 8 weeks), 100.0%; in data set [4] (in binary Blend, 25° C. Storage, 12 weeks), 100.0%. The “HPLC purity (% peak area)” value is recorded as 100.0% in data set [4] (in binary Blend, 40° C. Storage, 0 weeks); 100.0% in data set [4] (in binary Blend, 40° C. Storage, 5 weeks); 100.0% in data set [4] (in binary Blend, 40° C. Storage, 8 weeks); 100.0% in data set [4] (in binary Blend, 40° C. Storage, 12 weeks). Also, the “HPLC Purity (Peak Area %) Compound 1” value in data set [2] (2 weeks) and in data set [2] (5 weeks) was 100.0% throughout. For the same compound, the “chemical stability in the presence of the excipients (in words)” value in data set [2] is given as “comparable to the stability for the drug substance controls”.
